Experimental data as given in ChEMBL document CHEMBL5223153, “Elucidation of protective effects of oxime derivatives against cisplatin-induced cytotoxicity in LLC-PK1 kidney cells” (2023).
Activity calls are given as the source filed them. No cut-off for these calls is given here.

Tests used:
LLC-PK1 [1] = test: Nephroprotective activity against cisplatin induced cytotoxicity in pig LLC-PK1 cells assessed as increase in cell viability at 125 uM incubated for 24 hrs by MTT assay; format: functional, Sus scrofa
LLC-PK1 [2] = test: Nephroprotective activity against cisplatin induced cytotoxicity in pig LLC-PK1 cells assessed as decrease in phosphorylated ERK level at 125 uM incubated for 24 hrs by Western blot analysis; format: functional, cell-based; settings: Sus scrofa
LLC-PK1 [3] = test: Nephroprotective activity against cisplatin induced cytotoxicity in pig LLC-PK1 cells assessed as decrease in phosphorylated JNK level at 125 uM incubated for 24 hrs by Western blot analysis; format: functional, cell-based; settings: Sus scrofa
LLC-PK1 [4] = test: Nephroprotective activity against cisplatin induced cytotoxicity in pig LLC-PK1 cells assessed as decrease in cleaved caspase-3 level at 125 uM incubated for 24 hrs by Western blot analysis; format: functional, cell-based; settings: Sus scrofa
LLC-PK1 [5] = test: Nephroprotective activity against cisplatin induced apoptosis in pig LLC-PK1 cells assessed as decrease in ratio of apoptotic cells at 125 uM incubated for 24 hrs by annexin V staining based image cytometric analysis; format: functional, cell-based; settings: Sus scrofa
LLC-PK1 [6] = test: Nephroprotective activity against cisplatin induced cytotoxicity in pig LLC-PK1 cells assessed as increase in cell viability at 50 uM incubated for 24 hrs by MTT assay; format: functional, Sus scrofa
LLC-PK1 [7] = test: Nephroprotective activity against cisplatin induced cytotoxicity in pig LLC-PK1 cells assessed as increase in cell viability at 250 uM incubated for 24 hrs by MTT assay; format: functional, Sus scrofa
LLC-PK1 [8] = test: Nephroprotective activity against cisplatin induced cytotoxicity in pig LLC-PK1 cells assessed as increase in cell viability at 25 uM incubated for 24 hrs by MTT assay; format: functional, Sus scrofa

SMILES	Activity (LLC-PK1 [1]) [%]	Activity (LLC-PK1 [2])	Activity (LLC-PK1 [3])	Activity (LLC-PK1 [4])	Activity (LLC-PK1 [5])	Activity (LLC-PK1 [6]) [%]	Activity (LLC-PK1 [7]) [%]	Activity (LLC-PK1 [8]) [%]
COc1cc(Br)c(/C=C/C(=N/O)c2ccc(Cl)cc2)cc1OC	84.41	Active	Active	Active	Active	82.22	94.51	
COc1cc(Br)c(/C=C/C(=N/O)c2ccc(Br)cc2)cc1OC	83.79	Active	Active	Active	Active	83.86	94.78	66.83
